The record followed here is patent US10118902B2 (Sanford Burnham Prebys Medical Discovery Institute, priority 2014, dated 2018).

Each structure is given as a SMILES string. Bounds are passed on as bounds.

The target of this test is neurotensin receptor 1 (NTR1) (Homo sapiens (Human), UniProt P30989). Kind of test: NTR1 dose response, high-content imaging beta-arrestin-GFP assay in NTR1-U2OS cells. The format is cell-based. The conditions noted are these: read-out: EC50.
Sequence of neurotensin receptor 1 (NTR1) (P30989 whole entry, species assumed): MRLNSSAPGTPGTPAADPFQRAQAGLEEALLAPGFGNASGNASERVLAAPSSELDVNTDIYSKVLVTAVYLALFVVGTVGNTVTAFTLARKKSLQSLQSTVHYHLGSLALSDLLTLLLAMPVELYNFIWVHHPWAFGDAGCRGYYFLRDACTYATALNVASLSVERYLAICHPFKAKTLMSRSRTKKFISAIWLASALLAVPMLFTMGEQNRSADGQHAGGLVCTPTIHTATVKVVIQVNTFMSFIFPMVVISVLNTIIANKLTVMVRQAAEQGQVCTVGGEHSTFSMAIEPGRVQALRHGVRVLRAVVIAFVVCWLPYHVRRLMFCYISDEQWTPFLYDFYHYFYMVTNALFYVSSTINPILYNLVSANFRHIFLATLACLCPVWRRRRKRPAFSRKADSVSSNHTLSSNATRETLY
By EC50 is commonly meant the midpoint of the concentration-response curve. As for `CN(C)c1ccccc1C1CCN(c2nc(C3(F)CCC3)nc3ccc(N(C)CCO)cc23)CC1` [Example 61, 2-{[4-[4-(2-dimethylamino-phenyl)-piperidin-1-yl]-2-(1-fluoro-cyclobutyl)-quinazolin-6-yl]-methyl-amino}-ethanol], the half-maximal effective concentration (EC50) is < 500 nM. In the case of `CN(C)c1ccccc1C1CCN(c2nc(C3(F)CCC3)nc3ccc(N(C)CCN4CCOCC4)cc23)CC1` [Example 62, [4-[4-(2-dimethylamino-phenyl)-piperidin-1-yl]-2-(1-fluoro-cyclobutyl)-quinazolin-6-yl]-methyl-(2-morpholin-4-yl-ethyl)-amine], the EC50 lay within 500 to 2000 nM. Take `COc1ccccc1C1CCN(c2nc(C3(C(F)(F)F)CCC3)nc3ccc(N(C)CCO)cc23)CC1` [Example 63, 2-{[4-[4-(2-methoxy-phenyl)-piperidin-1-yl]-2-(1-trifluoromethyl-cyclobutyl)-quinazolin-6-yl]-methyl-amino}-ethanol]: the concentration for a half-maximal effect (EC50) was in the range of 500 to 2000 nM. As for `COc1ccccc1C1CCN(c2nc(C3(C(F)(F)F)CCC3)nc3ccc(N(C)CCN4CCOCC4)cc23)CC1` [Example 64, [4-[4-(2-methoxy-phenyl)-piperidin-1-yl]-2-(1-trifluoromethyl-cyclobutyl)-quinazolin-6-yl]-methyl-(2-morpholin-4-yl-ethyl)-amine], the concentration giving a half-maximal response (EC50) was > 10000 nM. On to `CN(C)c1ccccc1C1CCN(c2nc(C3(C(F)(F)F)CCC3)nc3ccc(N(C)CCO)cc23)CC1` [Example 65, 2-{[4-[4-(2-Dimethylamino-phenyl)-piperidin-1-yl]-2-(1-trifluoromethyl-cyclobutyl)-quinazolin-6-yl]-methyl-amino}-ethanol], for which the EC50 was in the range of 2000 to 10000 nM. Take `CN(C)c1ccccc1C1CCN(c2nc(C3(C(F)(F)F)CCC3)nc3ccc(N(C)CCN4CCOCC4)cc23)CC1` [Example 66, [4-[4-(2-dimethylamino-phenyl)-piperidin-1-yl]-2-(1-trifluoromethyl-cyclobutyl)-quinazolin-6-yl]-methyl-(2-morpholin-4-yl-ethyl)-amine]: the EC50 is > 10000 nM. Take `CN(C)c1ccccc1C1CCN(c2nc(C3(C)CCC3)nc3ccc(N(C)CCN4CCOCC4)cc23)CC1` [Example 67, [4-[4-(2-dimethylamino-phenyl)-piperidin-1-yl]-2-(1-methyl-cyclobutyl)-quinazolin-6-yl]-methyl-(2-morpholin-4-yl-ethyl)-amine]: the EC50 is > 10000 nM. The result for `CN(C)c1ccccc1C1CCN(c2nc(C3(C)CCC3)nc3ccc(N(C)CCO)cc23)CC1` [Example 68, 2-{[4-[4-(2-dimethylamino-phenyl)-piperidin-1-yl]-2-(1-methyl-cyclobutyl)-quinazolin-6-yl]-methyl-amino}-ethanol] reads 500 to 2000 nM; that for `COc1ccccc1C1CCN(c2nc(C3(C)CCC3)nc3ccc(N(C)CCN4CCOCC4)cc23)CC1` [Example 69, [4-[4-(2-methoxy-phenyl)-piperidin-1-yl]-2-(1-methyl-cyclobutyl)-quinazolin-6-yl]-methyl-(2-morpholin-4-yl-ethyl)-amine], 500 to 2000 nM; that for `COc1ccccc1C1CCN(c2nc(C3(C)CCC3)nc3ccc(N(C)CCO)cc23)CC1` [Example 70, 2-{[4-[4-(2-Methoxy-phenyl)-piperidin-1-yl]-2-(1-methyl-cyclobutyl)-quinazolin-6-yl]-methyl-amino}-ethanol], 500 to 2000 nM. To `COc1ccccc1C1CCN(c2nc(C3(F)CCCC3)nc3ccc(N(C)CCN4CCOCC4)cc23)CC1` [Example 71, {2-(1fluoro-cyclopentyl)-4-[4-(2-methoxy-phenyl)-piperidin-1-yl]-quinazolin-6-yl}-methyl-(2-morpholin-4-yl-ethyl)-amine] belongs 2000 to 10000 nM; to `COc1ccccc1C1CCN(c2nc(C3(F)CCCC3)nc3ccc(N(C)CCO)cc23)CC1` [Example 72, 2-({2-(1-fluoro-cyclopentyl)-4-[4-(2-methoxy-phenyl)-piperidin-1-yl]-quinazolin-6-yl}-methyl-amino)-ethanol], 500 to 2000 nM; to `CN(C)c1ccccc1C1CCN(c2nc(C3(F)CCCC3)nc3ccc(N(C)CCN4CCOCC4)cc23)CC1` [Example 73, [4-[4-(2-dimethylamino-phenyl)-piperidin-1-yl]-2-(1-fluoro-cyclopentyl)-quinazolin-6-yl]-methyl-(2-morpholin-4-yl-ethyl)-amine], 2000 to 10000 nM. For `CN(C)c1ccccc1C1CCN(c2nc(C3CCCC3)nc3ccc(N(C)CCN4CCOCC4)cc23)CC1` [Example 74, {2-cyclopentyl-4-[4-(2-dimethylamino-phenyl)-piperidin-1-yl]-quinazolin-6-yl}-methyl-(2-morpholin-4-yl-ethyl)-amine], the EC50 is 2000 to 10000 nM. In the case of `CN(C)c1ccccc1C1CCN(c2nc(C3(F)CCCC3)nc3ccc(N(C)CCO)cc23)CC1` [Example 75, 2-{[4-[4-(2-dimethylamino-phenyl)-piperidin-1-yl]-2-(1-fluoro-cyclopentyl)-quinazolin-6-yl]-methyl-amino}-ethanol], the concentration giving a half-maximal response (EC50) was 2000 to 10000 nM.

Regarding `COc1ccccc1C1CCN(c2nc(C3CC3)nc3ccc(N4CCC(O)CC4)cc23)CC1` [Example 76, 1-{2-cyclopropyl-4-[4-(2-methoxy-phenyl)-piperidin-1-yl]-quinazolin-6-yl}-piperidin-4-ol], the half-maximal effective concentration (EC50) was 2000 to 10000 nM.

For `COc1ccccc1C1CCN(c2nc(C3CC3)nc3ccc(N4CCC(OC)CC4)cc23)CC1` [Example 77], the EC50 was in the range of 2000 to 10000 nM.

Turning to `COc1ccccc1C1CCN(c2nc(C3CC3)nc3ccc(N4CCC(N(C)C)CC4)cc23)CC1` [Example 78, (1-{2-cyclopropyl-4-[4-(2-methoxy-phenyl)-piperidin-1-yl]-quinazolin-6-yl}-piperidin-4-yl)-dimethyl-amine], the EC50 was > 10000 nM. With `COc1ccccc1C1CCN(c2nc(C3CC3)nc3ccc(N4CCC(O)C4)cc23)CC1` (stereo not shown) [Example 79, 1-{2-cyclopropyl-4-[4-(2-methoxy-phenyl)-piperidin-1-yl]-quinazolin-6-yl}-pyrrolidin-3-ol], the half-maximal effective concentration (EC50) is 500 to 2000 nM.

`COc1ccccc1C1CCN(c2nc(C3CC3)nc3ccc(N4CCC(OC)C4)cc23)CC1` (stereo not shown) [Example 80, 2-cyclopropyl-4-[4-(2-methoxy-phenyl)-piperidin-1-yl]-6-(3-methoxy-pyrrolidin-1-yl)-quinazoline]: the EC50 was 500 to 2000 nM. Turning to `COc1ccccc1C1CCN(c2nc(C3CC3)nc3ccc(N4CC[C@@H](O)C4)cc23)CC1` [Example 81, (R)-1-{2-cyclopropyl-4-[4-(2-methoxy-phenyl)-piperidin-1-yl]-quinazolin-6-yl}-pyrrolidin-3-ol], the EC50 was < 500 nM. To `COc1ccccc1C1CCN(c2nc(C3CC3)nc3ccc(N4CC[C@H](O)C4)cc23)CC1` [Example 82, (S)-1-(2-cyclopropyl-4-(4-(2-methoxyphenyl)piperidin-1-yl)quinazolin-6-yl)pyrrolidin-3-ol] belongs 500 to 2000 nM; to `COc1ccccc1C1CCN(c2nc(C3CC3)nc3ccc(N4CC[C@@H](OC)C4)cc23)CC1` [Example 83, (R)-2-cyclopropyl-4-(4-(2-methoxyphenyl)piperidin-1-yl)-6-(3-methoxypyrrolidin-1-yl)quinazoline], < 500 nM; to `COc1ccccc1C1CCN(c2nc(C3CC3)nc3ccc(N4CC[C@H](OC)C4)cc23)CC1` [Example 84, (S)-2-cyclopropyl-4-(4-(2-methoxyphenyl)piperidin-1-yl)-6-(3-methoxypyrrolidin-1-yl)quinazoline], 500 to 2000 nM. In the case of `CCCN(C)Cc1ccc2nc(C3CC3)nc(N3CCC(c4ccccc4OC)CC3)c2c1` [Example 85, {2-cyclopropyl-4-[4-(2-methoxy-phenyl)-piperidin-1-yl]-quinazolin-6-ylmethyl}-methyl-propyl-amine], the concentration giving a half-maximal response (EC50) is > 10000 nM.

On to `COc1ccccc1C1CCN(c2nc(C3CC3)nc3ccc(CN(C)C)cc23)CC1` [Example 86, {2-cyclopropyl-4-[4-(2-methoxy-phenyl)-piperidin-1-yl]-quinazolin-6-ylmethyl}-dimethyl-amine], for which the 50% effective concentration (EC50) was > 10000 nM. To `COCCN(C)Cc1ccc2nc(C3CC3)nc(N3CCC(c4ccccc4OC)CC3)c2c1` [Example 87, {2-cyclopropyl-4-[4-(2-methoxy-phenyl)-piperidin-1-yl]-quinazolin-6-ylmethyl}-(2-methoxy-ethyl)-methyl-amine] belongs 2000 to 10000 nM.

As for `COc1ccccc1C1CCN(c2nc(C3CC3)nc3ccc(CN(C)CCN4CCOCC4)cc23)CC1` [Example 88, {2-cyclopropyl-4-[4-(2-methoxy-phenyl)-piperidin-1-yl]-quinazolin-6-ylmethyl}-methyl-(2-morpholin-4-yl-ethyl)-amine], the EC50 was > 10000 nM.

In the case of `COc1ccccc1C1CCN(c2nc(C3CC3)nc3ccc(CN(C)CCO)cc23)CC1` [Example 89, 2-({2-cyclopropyl-4-[4-(2-methoxy-phenyl)-piperidin-1-yl]-quinazolin-6-ylmethyl}-methyl-amino)-ethanol], the EC50 was > 10000 nM. Turning to `CCOC(=O)CN(C)c1ccc2nc(C3CC3)nc(N3CCC(c4ccccc4OC)CC3)c2c1` [Example 90, ({2-cyclopropyl-4-[4-(2-methoxy-phenyl)-piperidin-1-yl]-quinazolin-6-yl}-methyl-amino)-acetic acid ethyl ester], the EC50 is > 10000 nM.

Regarding `CCOC(=O)CN(CC(=O)OCC)C1CCN(c2ccc3nc(C4CC4)nc(N4CCC(c5ccccc5OC)CC4)c3c2)CC1` [Example 92], the half-maximal effective concentration (EC50) is > 10000 nM. Take `CCOC(=O)CN(C)C1CCN(c2ccc3nc(C4CC4)nc(N4CCC(c5ccccc5OC)CC4)c3c2)CC1` [Example 93, [(1-{2-cyclopropyl-4-[4-(2-methoxy-phenyl)-piperidin-1-yl]-quinazolin-6-yl}-piperidin-4-yl)-methyl-amino]-acetic acid ethyl ester]: the concentration giving a half-maximal response (EC50) was > 10000 nM.

`COc1ccccc1C1CCN(c2nc(N(C)C)nc3ccc(N(C)CCO)cc23)CC1` [Example 94]: the EC50 is 500 to 2000 nM. The result for `CCCN(C)c1ccc2nc(N(C)C)nc(N3CCC(c4ccccc4OC)CC3)c2c1` [Example 95, 4-(4-(2-methoxyphenyl)piperidin-1-yl)-N2,N2,N6-trimethyl-N6-propylquinazoline-2,6-diamine] reads > 10000 nM.
